Here are results for 2 compounds from patent US20240272101A1, “Direct Sampling from Phase-Separated Sample for Hydrophobicity Assessment” (DH Technologies Development Pte. Ltd., priority 2021, published 2024).

Data set [1] in a line: mass spectrometric hydrophobicity assessment: acoustic droplet ejection from water/pentanol two-phase system versus single-phase aqueous solution. In kind it is physicochemical. The following applies: MRM signal; 25 μL pentanol added to 25 μL water, 1 μg/mL analyte; FIGS. 7A and 7B. On the procedure: A two-phase system was prepared by adding […] of pentanol to 25 μL of an aqueous solution of dextromethorphan. A SCIEX Triple Quad 6500+ mass spectrometer system having an acoustic droplet dispenser (shown schematically in FIG. 4) equipped with a two-layer acoustic calibration was employed to eject a plurality of droplets from the two-phase system into an OPI of the mass spectrometer for observing an MRM transition of the target analyte. Although in this example, a single MRM transition was monitored, in other cases, multiple MRM transitions of the target analyte can be monitored.
A single-phase aqueous sample was prepared as 1 μg/ml of dextromethorphan in 25 μL of water. A two-phase system was then formed by adding 25 μL of pentanol to 25 μL water in which 0.025 μg was mixed.
The above mass spectrometer was then utilized to obtain a series of measurements of the 272.2→215.1 MRM transition of the target analyte via sampling the single-phase solution and the two-phase system.
By way of comparison, a single-phase aqueous sample of adenosine was prepared by mixing adenosine with 25 μL of water to prepare a single-phase aqueous solution having a concentration of 1 μg/mL of adenosine. A two-phase system was prepared by adding 25 μL of pentanol to 25 μL aqueous single-phase system of adenosine having a concentration of 1 μg/mL adenosine. […]

The conditions of data set [2]: known values, quoted for comparison; cited from earlier work.

Structures are written as SMILES.

`Nc1ncnc2c1ncn2[C@@H]1O[C@H](CO)[C@@H](O)[C@H]1O` [adenosine]: in data set [1], the “relative ratio of the two-phase sampling signal versus the aqueous sampling signal” value is “less than that associated with dextromethorphan”. Besides, in data set [2], the “log P” value is given as −1.05. For `COc1ccc2c(c1)[C@]13CCCC[C@@H]1[C@H](C2)N(C)CC3` [dextromethorphan], the “log P” value in data set [2] was “+3.75”.

What is called log P is the decadic logarithm of the partition coefficient of the neutral form, usually between octanol and water.
